# Data taken from patent publication US20230112418A1, “COMPOUND AND RADIOACTIVE LABELING COMPOUND” (NIHON MEDI-PHYSICS CO., LTD., priority 2020, published 2023).
# Where two headings read alike, the source gives them in different places.
# What was measured:
# [1] = test system: LNCaP tumor transplanted mice; test: Suppression of tumor growth by 90Y-labeled compound; format: in vivo; conditions: 3.7 MBq i.v., FIG. 8
# Protocol: A saline solution (100 μL) of [^90Y]Y-PSMA-DA1 (3.7 MBq) or [^90Y]Y-PSMA-DB (3.7 MBq) obtained by the above-described method was injected into each of the LNCaP tumor transplanted mice via the tail vein thereof (n=7). As a control group, 100 μL of saline was injected into each of the LNCaP tumor transplanted mice via the tail vein thereof (n=7).
# After the injection of the ^90Y-labeled compound, a tumor volume and a body weight were measured three times per week. The tumor volume was calculated based on a calculation formula “(tumor volume)=[(long side)×(short side)^2/2]”.
# [2] = Distribution coefficient (1-octanol/PBS); format: physicochemical; conditions: log10, 1-octanol/PBS pH 7.4, n=5
# Protocol: The radioactive labeled compound (740 kBq) of any one of Examples and Comparative Examples was added to a mixed liquid of PBS (3 mL, pH 7.4 (20° C.)) and 1-octanol (3 mL), and the mixture was vortexed for two minutes and then centrifuged at 4000×g for five minutes. Thereafter, 1 mL of the 1-octanol layer and 500 μL of the PBS layer were collected, and the amount of radioactivity of each of the layers was measured with a gamma counter (n=5).
# As a calculation formula of a distribution coefficient, “log10 [(amount of radioactivity of 1-octanol layer)/(amount of radioactivity of PBS layer×2)]” was used. Results are illustrated in Table 1 below as mean±standard deviation (mean±SD).
# [^111In]In-PtDA (111 kBq) was added to a mixed liquid of PBS (pH 7.4, 3 mL) and 1-octanol (3 mL). The mixture was dispersed by vortexing for two minutes, and then centrifuged at 4000×g for five minutes. 1 mL of the 1-octanol layer and 1 mL of the PBS layer were collected, and the radioactivity of each of the layers was measured with a gamma counter (n=3).
# As a calculation formula, “(distribution coefficient)=[…]) [(radioactivity of 1-octanol layer [kBq])/(radioactivity of PBS layer [kBq])]” was used.
# CA-IX = biological target: T1, CA-IX (Homo sapiens, UniProt Q16790); test: Cell binding inhibition assay (acetazolamide as inhibitor, HT-29 cells); conditions: read-out: IC50 (nM, mean ± SD)
# T1 construct: HT-29 cells (CA-IX highly expressing cells, purchased from Sumitomo Dainippon Pharma Co., Ltd.); host or cells: HT-29 cells
# Protocol: In this evaluation, binding properties of [^111In]IS-DO2A-ALB1 to DO2A-ALB4 and [^111In]DO3A-IS1 with respect to CA-IX were evaluated.
# Specifically, HT-29 cells (CA-IX highly expressing cells, purchased from Sumitomo Dainippon Pharma Co., Ltd.) were seeded together with a medium at 4.0×10^5 cells/well in a 12 well plate, and cultured at 37° C. for 24 hours in an atmosphere of 5% carbon dioxide.
# Subsequently, the medium was removed, and a medium containing any one of the radioactive labeled compounds of Examples 1 to 4 and Comparative Example 1 (37 kBq/mL) was added to each well in an amount of 1 mL such that the acetazolamide concentration was 50000 to 0.00512 nM as an inhibitor, and the sample was cultured at 37° C. for two hours in an atmosphere of 5% carbon dioxide. In addition, a sample containing the radioactive labeled compound and not containing acetazolamide was also cultured under similar conditions. The experiment was performed with each concentration group at n=6.
# Subsequently, the medium was removed, the residue was washed with PBS (1 mL), and cells were lysed with a 1 N sodium hydroxide aqueous solution (200 μL×2) to obtain a cell lysate. Then, the amount of radioactivity in the cell lysate and that in the medium containing the radioactive labeled compound were each measured with a gamma counter (type name: Wallac 2470 Wizard manufactured by PerkinElmer, Massachusetts, U.S.A.). Separately from this, the total protein mass (mg protein) in the cell lysate was quantified by a BCA method. […] Results are illustrated in Table 2 below as mean±standard deviation (mean±SD).
# That is, the […] the calculated value of IC50, the higher affinity between the radioactive labeled compound and CA-IX.
# HT-29 tumor-bearing mice = test: In vivo radioactivity distribution assay in HT-29 tumor-bearing mice
# Description: Under 2% isoflurane anesthesia, a suspension of HT-29 cells (5×10^6 cells/mouse) expressing CA-IX was subcutaneously injected into the left shoulder of each of 5-week-old male BALB/c nude mice (purchased from SHIMIZU Laboratory Supplies CO., LTD.). The composition of the suspension was a mixture of HT-29 cells/DMEM medium (manufactured by Thermo Fisher Scientific Inc.) and a matrix product (Geltrex (registered trademark) (manufactured by Thermo Fisher) at a volume ratio of 1:1.
# Thereafter, the subcutaneously injected mice were raised for 14 days in a raising room that switches day and night every 12 hours with normal food and tap water to obtain HT-29 tumor-bearing mice.
# Then, a saline solution (259 kBq, 100 μL, containing 3 mg of ascorbic acid) of each of the radioactive labeled compounds of Examples 1 to 3 or a saline solution (259 kBq, 100 μL, containing 1 mg of ascorbic acid) of the radioactive labeled compound of Comparative Example 1 was injected into each of the mice via the tail vein thereof. The mice (n=5 in each group) were euthanized 1, 4, 8, 24, 48, 96, or 192 hours after the injection, blood, organs, and tumor sites were collected, and the masses thereof were measured. The amount of radioactivity was measured with a gamma counter.
# (§1) The degree of accumulation of the radioactive labeled compound is indicated as a value (% injected dose/g) obtained by dividing the percentage (% ID) of the amount of radioactivity with respect to the amount of injected radioactivity (injected dose) by the mass of blood or the mass of an organ (g). […] Results are illustrated in FIG. 1.
# [3] = test system: MDA-MB-231 tumor-bearing mice; test: In vivo radioactivity distribution assay in MDA-MB-231 tumor-bearing mice; conditions: 24 hours after injection
# Protocol: In a similar manner to Evaluation 3, a suspension of MDA-MB-231 cells (1×10^7 cells/mouse) having low expression of CA-IX was subcutaneously injected into the left shoulder of each of 5-week-old male BALB/c nude mice to obtain MDA-MB-231 tumor-bearing mice.
# Then, a saline solution (40 kBq, 100 μL, containing 3 mg of ascorbic acid) of the radioactive labeled compound of Example 1 was injected into each of the mice via the tail vein thereof. Mice (n=5 in each group) were euthanized 24 hours after the injection, blood, organs, and tumor sites were collected, and the masses thereof were measured. The amount of radioactivity was measured with a gamma counter.
# as §1, with “ID/g)” for “injected dose/g)”, “Table 3 as mean±standard deviation (n=5).” for “FIG. 1.”
# [4] = test system: LNCaP tumor transplanted mice; test: Suppression of tumor growth by 225Ac-labeled compound; format: in vivo; conditions: 20 kBq i.v., FIG. 9
# Protocol: [^225Ac]Ac-PSMA-DA1 (20 kBq) or [^225Ac]Ac-PSMA-DB (20 kBq) obtained by the above-described method was dissolved in a 5% ethanol-containing acetate buffer (158 mM, pH 6.5, 100 μL), and the solution was injected into each of the LNCaP tumor transplanted mice via the tail vein thereof (n=6 or 5). As a control group, 100 μL of 5% ethanol-containing acetate buffer (158 mM, pH 6.5) was injected into each of the LNCaP tumor transplanted mice via the tail vein thereof (n=4).
# After the injection of the ^225Ac-labeled compound, a tumor volume and a body weight were measured three times per week. The tumor volumes on the start day of injection of the ^225Ac-labeled compound were 75.3±26.0, 80.6±20.8, and 91.1±15.9 mm^3 in the [^225Ac]Ac-PSMA-DA1 injection group, the [^225Ac]Ac-PSMA-DB injection group, and the 5% ethanol-containing acetate buffer injection group, respectively.
# [5] = IC50 of inhibitor acetazolamide against binding of the radioactive labeled compound to HT-29 cells, 2 h, larger value = higher affinity of labeled compound for CA-IX
smiles,measurement,setting,value
O=C([O-])CN1CCN(C(CCC(=O)NCCCC[C@H](NC(=O)N[C@@H](CCC(=O)O)C(=O)O)C(=O)O)C(=O)[O-])CCN(CC(=O)[O-])CCN(C(CCC(=O)Nc2ccccc2)C(=O)[O-])CC1.[90Y+3] (stereo partly shown) [[^90Y]Y-PSMA-DB],Time after injection at which a significant difference in tumor volume vs saline group was observed,[1],≥ 33 days
"NS(=O)(=O)c1nn2cc(-c3ccc(NC(=O)CN4CCN(CC(=O)O)CCN(CC(=O)O)CCN(CC(=O)O)CC4)cc3)nc2s1 [[^111In]DO3A-IS1, metal not drawn]",Distribution coefficient (mean ± SD),[2],−3.72 ± 0.05
same,IC50,CA-IX,127 ± 19.6 nM
NS(=O)(=O)c1nn2cc(-c3ccc(NC(=O)CN4CCN(CC(=O)[O-])CCN(CC(=O)[O-])CCN(CC(=O)[O-])CC4)cc3)nc2s1.[111In+3] [[^111In]DO3A-IS1],Amount accumulated in the kidney (in words),HT-29 tumor-bearing mice; FIG. 1,very large as compared with the results of Examples
same,Amount accumulated in the tumor expressing CA-IX (in words),"HT-29 tumor-bearing mice; FIG. 1, HT-29 tumor",poor
NS(=O)(=O)c1nn2cc(-c3ccc(NC(=O)CN4CCN(CC(=O)O)CCN(CC(=O)N[C@@H](CCCCNC(=O)CCCc5ccc(I)cc5)C(=O)O)CCN(CC(=O)O)CC4)cc3)nc2s1.[111In+3] [[^111In]IS-DO2A-ALB1],Distribution coefficient (mean ± SD),[2],−1.70 ± 0.01
same,IC50,CA-IX; [5],571.4 ± 2.6 nM
same,Accumulation in the HT-29 tumor,HT-29 tumor-bearing mice; value of Evaluation 3 quoted for comparison with Table 3,10.73 % ID/g
same,Radioactivity accumulated amount: Blood,[3],5.50 ± 1.17 % ID/g
same,Radioactivity accumulated amount: Brain,[3],0.34 ± 0.03 % ID/g
same,Radioactivity accumulated amount: Heart,[3],3.12 ± 0.25 % ID/g
same,Radioactivity accumulated amount: Intestinal,[3],4.65 ± 0.48 % ID/g
same,Radioactivity accumulated amount: Kidney,[3],11.42 ± 0.65 % ID/g
same,Radioactivity accumulated amount: Liver,[3],2.64 ± 0.47 % ID/g
same,Radioactivity accumulated amount: Lung,[3],7.28 ± 0.85 % ID/g
same,Radioactivity accumulated amount: Muscle,[3],1.21 ± 0.22 % ID/g
same,Radioactivity accumulated amount: Pancreas,[3],2.27 ± 0.30 % ID/g
same,Radioactivity accumulated amount: Spleen,[3],2.04 ± 0.45 % ID/g
same,Radioactivity accumulated amount: Stomach,[3],4.44 ± 0.48 % ID
same,Radioactivity accumulated amount: Tumor (MDA-MB-231),[3],5.05 ± 0.59 % ID/g
same,Tumor/blood radioactivity ratio,[3],0.94 ± 0.17
same,Tumor/kidney radioactivity ratio,[3],0.44 ± 0.05
same,Tumor/muscle radioactivity ratio,[3],4.22 ± 0.47
"Cc1ccc(CCCC(=O)NCCCC[C@H](NC(=O)CN2CCN(CC(=O)O)CCN(CC(=O)Nc3ccc(-c4cn5nc(S(N)(=O)=O)sc5n4)cc3)CCN(CC(=O)O)CC2)C(=O)O)cc1.[111In+3] [[^111In]IS-DO2A-ALB2, [^111In] indium(III) (S)-2,2′-(4-(2-((1-carboxy-5-(4-(4-tolyl)butanamide)pentyl)amino)-2-oxoethyl)-10-(2-oxo-2-((4-(2-sulfamoylimidazo[2,1-b][1,3,4]thiadiazol-6-yl)phenyl)amino)ethyl)-1,4,7,10-tetraazacyclododecane-1,7-diyl) diacetic acid]",Distribution coefficient (mean ± SD),[2],−2.16 ± 0.04
same,IC50,CA-IX; [5],165 ± 60.6 nM
NS(=O)(=O)c1nn2cc(-c3ccc(NC(=O)CN4CCN(CC(=O)O)CCN(CC(=O)N[C@@H](CCCCNC(=O)CCCc5ccc(Br)cc5)C(=O)O)CCN(CC(=O)O)CC4)cc3)nc2s1.[111In+3] [[^111In]IS-DO2A-ALB3],Distribution coefficient (mean ± SD),[2],−1.90 ± 0.01
same,IC50,CA-IX; [5],288 ± 45.7 nM
"NS(=O)(=O)c1nn2cc(-c3ccc(NC(=O)CN4CCN(CC(=O)O)CCN(CC(=O)N[C@@H](CCCCNC(=O)CCCc5ccccc5)C(=O)O)CCN(CC(=O)O)CC4)cc3)nc2s1.[111In+3] [[^111In]IS-DO2A-ALB4, [^111In] indium(III) (S)-2,2′-(−(2-((1-carboxy-5-(4-phenylbutanamide)pentyl)amino)-2-oxoethyl)-10-(2-oxo-2-((4-(2-sulfamoylimidazo[2,1-b][1,3,4]thiadiazol-6-yl)phenyl)amino)ethyl)-1,4,7,10-tetraazacyclododecane-1,7-diyl) diacetic acid]",Distribution coefficient (mean ± SD),[2],−2.36 ± 0.01
same,IC50,CA-IX; [5],105 ± 8 nM
O=C([O-])CN1CCN(C(CCC(=O)NCCCC[C@H](NC(=O)N[C@@H](CCC(=O)O)C(=O)O)C(=O)O)C(=O)[O-])CCN(CC(=O)[O-])CCN(C(CCC(=O)N[C@@H](CCCCNC(=O)CCCc2ccc(I)cc2)C(=O)O)C(=O)[O-])CC1.[225Ac+3] (stereo partly shown) [[^225Ac]Ac-PSMA-DA1],Course of tumor growth (in words),[4],"the tumor hardly grew, and continuous growth suppression was observed up to six weeks after the injection"
same,Decrease in body weight (in words),[4],transient
same,Tumor growth compared with control group (in words),[4],tumor growth was significantly suppressed
O=C([O-])CN1CCN(C(CCC(=O)NCCCC[C@H](NC(=O)N[C@@H](CCC(=O)O)C(=O)O)C(=O)O)C(=O)[O-])CCN(CC(=O)[O-])CCN(C(CCC(=O)Nc2ccccc2)C(=O)[O-])CC1.[225Ac+3] (stereo partly shown) [[^225Ac]Ac-PSMA-DB],Decrease in body weight (in words),[4],"temporarily accelerated, but there was no sign of recovery thereafter"
same,Tumor growth compared with control group (in words),[4],tumor growth was significantly suppressed
